Source: publication PMC6225212, “Synthesis and Pharmacological Evaluation of Novel Silodosin-Based Arylsulfonamide Derivatives as α1A/α1D-Adrenergic Receptor Antagonist with Potential Uroselective Profile” (Molecules : A Journal of Synthetic Chemistry and Natural …, 2018)
Entries after “also recorded” stand apart in the source; their conditions may differ.

What was measured:
[1] = tested on: normotensive anaesthetized rats; assay: Effect on blood pressure after single i.v. administration in normotensive anaesthetized rats; format: in vivo, rat; details: 2 mg/kg i.v.
Method: The experiments were performed to our previously reported method.
Identified compounds 9 and 10 with favorable α1B/α1D profile and acceptable metabolic stability were selected for in vivo tests to evaluate their influence on blood pressure. Hypotensive activity was determined after one time i.v. administration to normotensive anaesthetized rats at single doses of 2 mg/kg according to our previously reported method.
The experiments were carried out on male Wistar rats (body weight 200–250 g). The animals were housed in pairs in plastic cages in constant-temperature facilities exposed to a 12:12 h light/dark cycle; water and food were available ad libitum. Experimental groups consisted of 6 animals each. All experiments were conducted in accordance with the NIH Guide for Care and Use of Laboratory Animals and were approved by the Animal Use and Care Committee of the Jagiellonian University (2012, Kraków, Poland).
The normotensive rats were anesthetized with thiopental (70 mg/kg) by i.p. injection. The left carotid artery was cannulated with polyethylene tubing filled with heparin solution in saline to facilitate pressure measurements using PowerLab Apparatus (ADInstruments, Sydney, Australia). Blood pressure was measured: before administration of the compounds—time 0 min (control pressure), and 60 min thereafter. For each compound, studies were performed in the dose of 2 mg/kg b.w. Compounds were dissolved in water and administered intravenously. Initial blood pressure before administration of the tested compounds in all groups was similar.
Statistical calculations were carried out with the GraphPadPrism 6 program (GraphPad Software). Results are given as the arithmetic means with standard deviation (SD). The statistical significance was calculated using a one-way ANOVA and posthoc Bonfferoni Test in comparison to 0.9% NaCl. Differences were considered statistically significant at: * p ≤ 0.05, ** p ≤ 0.01, *** p ≤ 0.001.

[2] = In vitro metabolic stability in rat-liver microsomes (RLM); format: in vitro ADME; details: for Major Metabolic Pathway: RLM; for microsomal CLint at 10 μM / half-life at 10 μM: male, rat, rat liver microsomes, pH 7.4, RLM 0.2 mg/mL, compound 10 μM, 37 °C; for half-life at 10 μM: read-out: t½
Method: In vitro biotransformation assays of selected compounds 9 and 10 were performed using rat-liver microsomes (RLM), potassium-phosphate buffer, NADPH-regenerating system (NADP, glucose-6-phosphate, glucose-6-phosphate dehydrogenase), and levallorphan as internal standard, according to the previously published procedure. Compound I and the drug tamsulosin were used as reference standard. UPLC/MS analysis (Waters Corporation, Milford, MA, USA) was performed to determine the quantity of the starting material left in solution. The in vitro half-time (t1/2) for test compounds was determined from the slope of the linear regression of ln % parent compound remaining versus incubation time. The calculated t1/2 was incorporated into the following equation to obtain intrinsic clearance: (Clint) = (volume of incubation [µL]/protein in the incubation [mg]) × 0.693/t1/2.
Metabolic stability of tested compound was analyzed using incubation systems, composed of: tested compounds (10 μM), RLMs (microsomes from rat male liver, pooled; 0.2 mg/mL; Sigma Aldrich), NADPH-regenerating system (NADP+, glucose-6-phosphate and glucose-6-phosphate dehydrogenase in 100mM potassium buffer, pH 7.4; all from Sigma Aldrich), and potassium buffer, pH 7.4. […] Firstly, all samples contained incubation mixture (without NADPH-regenerating system) were preincubated in a thermoblock at 37 °C for 10 min. Then reaction was initiated by the addition of NADPH-regenerating system. In control samples NADPH-regenerating system was replaced with potassium buffer. Probes were incubated in thermoblock for 15 and 30 min at 37 °C. After addition of internal standard (levallorphan, 10 μM), the biotransformation process was stopped by addition of perchloric acid (69–72%, by volume). Next, samples were centrifuged (Centrifuge 5427 R, Eppendorf, Hamburg, Germany) and supernatants were analyzed using UPLC/MS (Waters Corporation). All experiments were run in duplicates. Half-life time was evaluated using a nonlinear regression model using Graph Pad Prism software (Graph Pad Software, La Jolla, San Diego, CA, USA) and intrinsic clearance was calculated from the equation Clint = (volume of incubation [μL]/protein in the incubation [mg]) ×∙0.693/t1/2 [33].

α1D-ARs = molecular target: T1, α1D-ARs (Homo sapiens, UniProt P25100); assay: Intrinsic activity at α1D-ARs, aequorin calcium mobilization luminescence; format: cell-based; set-up: key to α1D Profile: ANT—antagonist; AGO—agonist; details: for IC50: antagonist mode, three independent experiments; for α1D Profile: functional profile; for EC50: antagonist, as worded in abstract and text, read-out: EC50(α1D)
T1 sequence (P25100 1-572): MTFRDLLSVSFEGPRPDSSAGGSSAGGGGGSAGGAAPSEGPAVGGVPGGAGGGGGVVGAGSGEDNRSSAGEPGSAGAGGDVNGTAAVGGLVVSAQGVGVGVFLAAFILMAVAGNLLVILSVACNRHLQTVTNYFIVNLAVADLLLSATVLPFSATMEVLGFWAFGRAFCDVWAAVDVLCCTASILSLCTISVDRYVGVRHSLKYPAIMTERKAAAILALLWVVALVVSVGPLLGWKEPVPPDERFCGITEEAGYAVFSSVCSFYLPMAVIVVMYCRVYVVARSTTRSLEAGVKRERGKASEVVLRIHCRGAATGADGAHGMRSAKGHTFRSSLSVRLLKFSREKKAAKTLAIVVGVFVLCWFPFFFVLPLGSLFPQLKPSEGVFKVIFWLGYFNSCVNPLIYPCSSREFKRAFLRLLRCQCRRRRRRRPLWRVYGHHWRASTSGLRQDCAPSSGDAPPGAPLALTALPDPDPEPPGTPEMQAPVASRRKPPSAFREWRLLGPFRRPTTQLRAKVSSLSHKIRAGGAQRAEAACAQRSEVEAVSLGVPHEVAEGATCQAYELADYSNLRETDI
Method: The intrinsic activity at α1A-ARs of the selected compounds was assessed by fluorescence detection (Invitrogen, Thermo Fisher Scientific, Carlsbad, CA, USA) of β-lactamase reporter genes using a FRET-enabled substrate. The intrinsic activity at α1B-ARs and α1D-ARs was determined by luminescence detection (PerkinElmer, Zaventem, Belgium) of calcium mobilization using the recombinant-expressed jellyfish photoprotein (Aequorin).
Intrinsic activity assay to α1B- and α1D-ARs was performed according to the manufacturer of the ready-to-use cells with stable expression of the α1B-adrenoreceptors and α1D-adrenoreceptors, respectively (PerkinElmer, Zaventem, Belgium). For measurement, cells (frozen, ready to use) were thawed and resuspended in 10 mL of assay buffer containing 5 µM coelenterazine h. This cells suspension was put in a 10 mL Falcon tube, fixed onto a rotating heel, and incubated for overnight at rt in the dark (8 rpm; 45° angle). Cells were diluted with Assay Buffer to 5000 cells/20 µL. Agonistic ligands 2 × (50 µL/well), diluted in Assay Buffer, were prepared in ½ white polystyrene area plates, and the cell suspension was dispensed in 50 µL volume on the ligands using the injector. The light emitted was recorded for 20 s. Cells with antagonist were incubated for 15 min at room temperature. Thereafter, 50 µL of agonist (3 × EC80 final concentration) was injected into the mix of cells and antagonist and the light emitted was recorded for 20 s.

Row | Major Metabolic Pathway [2] | microsomal CLint at 10 μM [2] | half-life at 10 μM [2] | IC50 (α1D-ARs) | α1D Profile (α1D-ARs) | EC50 (α1D-ARs) | SMILES | effect on blood pressure, in words (significance vs 0.9% NaCl) [1] | decrease of DBP ([1]; over 60 min)
1 | N-dealkylation | 41 µL/min/mg | 83 min | 0.005 nM | ANT |  | CCOc1ccccc1OCCN[C@H](C)Cc1ccc(OC)c(S(N)(=O)=O)c1 [tamsulosin, reference compound] | significantly through whole period of observation | 13.3–16.6 mmHg
2 | N-dealkylation | 67 µL/min/mg | 51.5 min | 1.1 nM | ANT | 1.1 nM | O=S(=O)(NCC1CCN(CCOc2ccccc2OCC(F)(F)F)CC1)c1cccc(Cl)c1F [Compound 9, 3-Chloro-2-fluoro-N-[(1-{2-[(2,2,2-trifluoroethoxy)phenoxy]ethyl}piperidin-4-yl)methyl]benzenesulfonamide] | did not decrease systolic and diastolic blood pressure; also recorded: insignificantly | 
3 | N-dealkylation | 91.7 µL/min/mg | 37.8 min | 2.7 nM | ANT | 1.1 to 2.7 nM | O=S(=O)(NCC1CCN(CCOc2ccccc2OCC(F)(F)F)CC1)c1cc(Cl)ccc1F [Compound 10, 5-Chloro-2-fluoro-N-[(1-{2-[(2,2,2-trifluoroethoxy)phenoxy]ethyl}piperidin-4-yl)methyl]benzenesulfonamide] | statistically significant drop in systolic blood pressure was observed from 30 min after administration | 
